Test results as given in PubChem BioAssay AID308 (DTP/NCI, 2004).
Inconclusive results and toxic doses are left out. The calls were made as follows: active = survival T/C of 150% or more; inactive = T/C below 125% in these data.

Tested on: BDF1 mice, L1210 6-MP/6-TG resistant leukemia ip, survival T/C
Assay: NCI In Vivo Anticancer Drug Screen. Data for tumor model L1210 Leukemia resistant to 6-MP and 6-Thioguanine; NSC 755, NSC 752 (intraperitoneal) in B6D2F1 (BDF1) mice
Conditions: endpoint: mean survival time, higher = longer survival
Method: The antitumor activity of compounds was measured in mice bearing transplantable tumors. Survival or tumor size were measured and the results are expressed as the measurement made in the treated group (T) divided by the measurement made in the vehicle treated control group (C). The tumor model used in this assay is L1210 Leukemia resistant to 6-MP and 6-Thioguanine; NSC 755, NSC 752 (intraperitoneal) in B6D2F1 (BDF1) mice

[1] = dose: 25.0 mg/kg/injection, schedule: Q01DX Z (ip), vehicle: saline
[2] = dose: 50.0 mg/kg/injection, schedule: Q01DX Z (ip), vehicle: saline
[3] = dose: 10.0 mg/kg/injection, schedule: Q01DX Z (ip), vehicle: carboxymethylcellulose (CMC)
[4] = dose: 25.0 mg/kg/injection, schedule: Q01DX Z (ip), vehicle: carboxymethylcellulose (CMC)
[5] = dose: 37.5 mg/kg/injection, schedule: Q01DX Z (ip), vehicle: carboxymethylcellulose (CMC)
[6] = dose: 40.0 mg/kg/injection, schedule: Q01DX Z (ip), vehicle: carboxymethylcellulose (CMC)
[7] = dose: 100.0 mg/kg/injection, schedule: Q01DX Z (ip), vehicle: saline
[8] = dose: 6.25 mg/kg/injection, schedule: Q01DX015 (ip), vehicle: carboxymethylcellulose (CMC)
[9] = dose: 12.5 mg/kg/injection, schedule: Q01DX015 (ip), vehicle: carboxymethylcellulose (CMC)
[10] = dose: 62.0 mg/kg/injection, schedule: Q01DX Z (ip), vehicle: carboxymethylcellulose (CMC)
[11] = dose: 125.0 mg/kg/injection, schedule: Q01DX Z (ip), vehicle: carboxymethylcellulose (CMC)

Measured: T/C

Nn1cnc2c(=S)nc[nH]c21
inactive: dose: 18.0 mg/kg/injection, schedule: Q01DX009 (ip), vehicle: other 98 % of control | dose: 28.0 mg/kg/injection, schedule: Q01DX009 (ip), vehicle: other 96 % of control | dose: 42.0 mg/kg/injection, schedule: Q01DX015 (ip), vehicle: other 99 % of control | dose: 72.0 mg/kg/injection, schedule: Q01DX015 (ip), vehicle: other 92 % of control

CN(C)c1nc(N(C)C)nc(N(C)C)n1
inactive: dose: 4.3 mg/kg/injection, schedule: Q01DX Z (ip), vehicle: other 101 % of control | dose: 8.7 mg/kg/injection, schedule: Q01DX Z (ip), vehicle: other 111 % of control | dose: 17.5 mg/kg/injection, schedule: Q01DX Z (ip), vehicle: other 109 % of control | dose: 35.0 mg/kg/injection, schedule: Q01DX Z (ip), vehicle: other 111 % of control | dose: 50.0 mg/kg/injection, schedule: Q01DX Z (ip), vehicle: other 110 % of control | dose: 100.0 mg/kg/injection, schedule: Q01DX Z (ip), vehicle: other 98 % of control

CN(C)c1ccc(/C=C/c2ccnc3ccccc23)cc1
inactive: dose: 1.87 mg/kg/injection, schedule: Q01DX Z (ip), vehicle: saline 115 % of control | dose: 3.75 mg/kg/injection, schedule: Q01DX Z (ip), vehicle: saline 109 % of control | dose: 7.5 mg/kg/injection, schedule: Q01DX Z (ip), vehicle: saline 115 % of control | dose: 15.0 mg/kg/injection, schedule: Q01DX Z (ip), vehicle: saline 110 % of control | [1] 102 % of control | [2] 90 % of control

Nc1nc(SCc2ccccc2)c2[nH]cnc2n1
inactive: dose: 5.0 mg/kg/injection, schedule: Q01DX Z (ip), vehicle: carboxymethylcellulose (CMC) 88 % of control | [3] 91 % of control | [4] 86 % of control | [5] 95 % of control

N#CCSc1ncnc2nc[nH]c12
inactive: dose: 12.5 mg/kg/injection, schedule: Q01DX Z (ip), vehicle: carboxymethylcellulose (CMC) 86 % of control | [4] 88 % of control | [5] 87 % of control | dose: 75.0 mg/kg/injection, schedule: Q01DX Z (ip), vehicle: carboxymethylcellulose (CMC) 90 % of control | dose: 100.0 mg/kg/injection, schedule: Q01DX Z (ip), vehicle: carboxymethylcellulose (CMC) 100 % of control

O=CN(O)CC(=O)O
inactive: dose: 62.0 mg/kg/injection, schedule: Q01DX Z (ip), vehicle: saline 100 % of control | dose: 125.0 mg/kg/injection, schedule: Q01DX Z (ip), vehicle: saline 112 % of control | dose: 250.0 mg/kg/injection, schedule: Q01DX Z (ip), vehicle: saline 107 % of control | dose: 500.0 mg/kg/injection, schedule: Q01DX Z (ip), vehicle: saline 105 % of control

COc1cc([C@@H]2c3cc4c(cc3[C@H](O)[C@H]3COC(=O)[C@@H]23)OCO4)cc(OC)c1OC
inactive: [3] 124 % of control | [6] 101 % of control

C[C@]12C=CC(=O)C=C1CC[C@@H]1[C@@H]2C(=O)C[C@@]2(C)[C@H]1CC[C@]2(O)C(=O)CO
inactive: dose: 50.0 mg/kg/injection, schedule: Q01DX Z (sc), vehicle: steriod suspending solution 105 % of control | dose: 100.0 mg/kg/injection, schedule: Q01DX Z (sc), vehicle: steriod suspending solution 100 % of control | dose: 150.0 mg/kg/injection, schedule: Q01DX Z (sc), vehicle: steriod suspending solution 93 % of control | dose: 200.0 mg/kg/injection, schedule: Q01DX Z (sc), vehicle: steriod suspending solution 96 % of control

c1nc(SC2CCCC2)c2[nH]cnc2n1
inactive: dose: 80.0 mg/kg/injection, schedule: Q01DX Z (ip), vehicle: carboxymethylcellulose (CMC) 96 % of control | dose: 160.0 mg/kg/injection, schedule: Q01DX Z (ip), vehicle: carboxymethylcellulose (CMC) 110 % of control | dose: 320.0 mg/kg/injection, schedule: Q01DX Z (ip), vehicle: carboxymethylcellulose (CMC) 89 % of control

CS(=O)(=O)OCCCl
inactive: dose: 75.0 mg/kg/injection, schedule: Q01DX Z (ip), vehicle: saline 115 % of control | [7] 108 % of control | dose: 150.0 mg/kg/injection, schedule: Q01DX Z (ip), vehicle: saline 116 % of control

Nc1nc(=S)c2ncn(C3OC(COC(=O)c4ccc(Cl)cc4)C(OC(=O)c4ccc(Cl)cc4)C3OC(=O)c3ccc(Cl)cc3)c2[nH]1 (stereo not drawn)
inactive: [8] 88 % of control | [9] 87 % of control | dose: 100.0 mg/kg/injection, schedule: Q01DX015 (ip), vehicle: carboxymethylcellulose (CMC) 86 % of control

C1CN1c1nc(N2CC2)nc(N2CC2)n1
inactive: dose: 0.25 mg/kg/injection, schedule: Q01DX Z (ip), vehicle: saline 118 % of control | dose: 1.0 mg/kg/injection, schedule: Q01DX Z (ip), vehicle: saline 109 % of control

CCCSc1nc(N)nc2nc[nH]c12
inactive: dose: 12.0 mg/kg/injection, schedule: Q01DX Z (ip), vehicle: saline 114 % of control | [1] 106 % of control | [2] 107 % of control | [7] 103 % of control | dose: 150.0 mg/kg/injection, schedule: Q01DX Z (ip), vehicle: carboxymethylcellulose (CMC) 91 % of control

CS(=O)(=O)OCC(O)C(O)COS(C)(=O)=O (stereo not drawn)
inactive: [10] 103 % of control | [11] 101 % of control | dose: 250.0 mg/kg/injection, schedule: Q01DX Z (ip), vehicle: carboxymethylcellulose (CMC) 122 % of control

O=c1[nH]c(=O)n(C2CC(O)C(CO)O2)cc1Br (stereo not drawn)
inactive: dose: 20.0 mg/kg/injection, schedule: Q01DX Z (ip), vehicle: carboxymethylcellulose (CMC) 112 % of control | dose: 30.0 mg/kg/injection, schedule: Q01DX Z (ip), vehicle: carboxymethylcellulose (CMC) 114 % of control | [6] 102 % of control | dose: 60.0 mg/kg/injection, schedule: Q01DX Z (ip), vehicle: carboxymethylcellulose (CMC) 98 % of control | dose: 93.0 mg/kg/injection, schedule: Q01DX Z (ip), vehicle: carboxymethylcellulose (CMC) 117 % of control | dose: 187.0 mg/kg/injection, schedule: Q01DX Z (ip), vehicle: carboxymethylcellulose (CMC) 115 % of control | dose: 375.0 mg/kg/injection, schedule: Q01DX Z (ip), vehicle: carboxymethylcellulose (CMC) 112 % of control | dose: 500.0 mg/kg/injection, schedule: Q01DX Z (ip), vehicle: carboxymethylcellulose (CMC) 109 % of control

CC(=O)CSc1ncnc2nc[nH]c12
inactive: dose: 3.12 mg/kg/injection, schedule: Q01DX015 (ip), vehicle: carboxymethylcellulose (CMC) 93 % of control | [8] 98 % of control | [9] 103 % of control | dose: 25.0 mg/kg/injection, schedule: Q01DX015 (ip), vehicle: carboxymethylcellulose (CMC) 96 % of control | dose: 50.0 mg/kg/injection, schedule: Q01DX015 (ip), vehicle: carboxymethylcellulose (CMC) 96 % of control | dose: 62.0 mg/kg/injection, schedule: Q01DX015 (ip), vehicle: carboxymethylcellulose (CMC) 100 % of control | dose: 125.0 mg/kg/injection, schedule: Q01DX015 (ip), vehicle: carboxymethylcellulose (CMC) 100 % of control | dose: 250.0 mg/kg/injection, schedule: Q01DX015 (ip), vehicle: carboxymethylcellulose (CMC) 95 % of control

Clc1ncnc2c1ncn2C1CCCCO1 (stereo not drawn)
inactive: dose: 62.0 mg/kg/injection, schedule: Q01DX Z (ip), vehicle: other 96 % of control | dose: 125.0 mg/kg/injection, schedule: Q01DX Z (ip), vehicle: other 91 % of control

COc1cc2c(c3c1c(=O)c1ccccc1n3C)C=CC(C)(C)O2
inactive: dose: 20.0 mg/kg/injection, schedule: Q01DX015 (ip), vehicle: carboxymethylcellulose (CMC) 106 % of control | dose: 40.0 mg/kg/injection, schedule: Q01DX015 (ip), vehicle: carboxymethylcellulose (CMC) 116 % of control

S=c1nc[nH]c2c1ncn2C1CCCCO1 (stereo not drawn)
inactive: dose: 16.0 mg/kg/injection, schedule: Q01DX Z (ip), vehicle: carboxymethylcellulose (CMC) 104 % of control | dose: 31.0 mg/kg/injection, schedule: Q01DX Z (ip), vehicle: carboxymethylcellulose (CMC) 104 % of control | [10] 107 % of control | [11] 96 % of control
